Data published in patent US9193722B2, “Tri-cyclic pyrazolopyridine kinase inhibitors” (Vertex Pharmaceuticals Incorporated, priority 2008, dated 2015).

How the values were obtained:
Type in all cases: biochemical
PKC alpha kinase = PKC alpha kinase (Homo sapiens, UniProt P17252); assay: PKC alpha kinase inhibition, coupled-enzyme (NADH absorbance) assay, Ki; details: 130 μM ATP, 4.5 nM PKC alpha kinase, 30° C.
Method in brief: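 Enzyme in 100 mM HEPES pH 7.5, 10 mM MgCl2, 100 μM CaCl2, 0.01% Brij, preincubated with compound 10 min at 30 °C. Reaction started with 130 μM ATP (final); NADH consumption followed at 340 nm for 15 min at 30 °C. Ki fitted by non-linear regression of initial rates.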

PKC theta kinase = PKC theta kinase (Homo sapiens, UniProt Q04759); assay: PKC theta kinase inhibition, coupled-enzyme (NADH absorbance) assay, Ki; details: 240 μM ATP, 18 nM PKC theta kinase, 30° C.
Sequence of PKC theta kinase (Q04759 whole entry): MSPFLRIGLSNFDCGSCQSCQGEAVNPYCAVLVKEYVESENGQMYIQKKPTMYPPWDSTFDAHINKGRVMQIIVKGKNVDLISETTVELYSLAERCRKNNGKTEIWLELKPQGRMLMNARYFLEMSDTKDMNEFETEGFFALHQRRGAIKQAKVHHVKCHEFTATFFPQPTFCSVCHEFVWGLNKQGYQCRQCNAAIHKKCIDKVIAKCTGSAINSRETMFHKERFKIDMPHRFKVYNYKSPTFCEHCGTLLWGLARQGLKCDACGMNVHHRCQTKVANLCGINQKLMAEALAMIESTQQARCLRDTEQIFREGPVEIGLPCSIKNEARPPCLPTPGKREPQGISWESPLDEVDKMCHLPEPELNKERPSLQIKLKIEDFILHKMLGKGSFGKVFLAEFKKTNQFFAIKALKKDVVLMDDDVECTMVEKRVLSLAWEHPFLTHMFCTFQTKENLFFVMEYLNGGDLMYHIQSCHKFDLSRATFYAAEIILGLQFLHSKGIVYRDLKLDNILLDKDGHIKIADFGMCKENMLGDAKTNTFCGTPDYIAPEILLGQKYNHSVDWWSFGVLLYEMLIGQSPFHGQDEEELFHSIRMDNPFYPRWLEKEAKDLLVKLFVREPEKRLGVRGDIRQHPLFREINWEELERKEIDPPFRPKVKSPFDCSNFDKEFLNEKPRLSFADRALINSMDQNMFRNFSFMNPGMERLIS
Method in brief: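 Coupled-enzyme kinase assay following NADH absorbance at 340 nm, in 100 mM HEPES pH 7.5, 10 mM MgCl2, 25 mM NaCl, 0.1 mM EDTA, 0.01% Brij. Compound in DMSO preincubated with enzyme 10 min at 30 °C. Ki from initial rates by non-linear regression.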

PKC delta kinase = PKC delta kinase (Homo sapiens, UniProt Q05655); assay: PKC delta kinase inhibition, coupled-enzyme (NADH absorbance) assay, Ki; details: 150 μM ATP, 46 nM PKC delta kinase, 30° C.; read-out: Ki PKC delta
Sequence of PKC delta kinase (Q05655 whole entry): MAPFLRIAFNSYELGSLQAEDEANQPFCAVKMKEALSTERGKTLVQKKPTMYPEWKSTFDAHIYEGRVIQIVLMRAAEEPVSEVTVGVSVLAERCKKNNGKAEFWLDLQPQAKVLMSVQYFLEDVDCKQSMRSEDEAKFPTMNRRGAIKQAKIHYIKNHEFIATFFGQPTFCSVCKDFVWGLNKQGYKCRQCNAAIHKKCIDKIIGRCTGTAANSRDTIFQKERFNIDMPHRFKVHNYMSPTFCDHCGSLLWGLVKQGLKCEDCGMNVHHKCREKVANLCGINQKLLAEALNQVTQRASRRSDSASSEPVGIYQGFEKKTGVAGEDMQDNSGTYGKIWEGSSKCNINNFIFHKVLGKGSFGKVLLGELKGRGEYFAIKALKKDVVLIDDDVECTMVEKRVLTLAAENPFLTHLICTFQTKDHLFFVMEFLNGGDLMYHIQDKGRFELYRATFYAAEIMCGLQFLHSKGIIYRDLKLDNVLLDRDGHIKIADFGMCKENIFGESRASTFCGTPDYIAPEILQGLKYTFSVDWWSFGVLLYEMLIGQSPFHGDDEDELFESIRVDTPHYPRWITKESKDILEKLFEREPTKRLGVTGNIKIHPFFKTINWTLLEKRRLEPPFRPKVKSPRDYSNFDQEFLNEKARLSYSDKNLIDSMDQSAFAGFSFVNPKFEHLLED
Method in brief: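 PKC delta in 100 mM HEPES pH 7.5, 10 mM MgCl2, 25 mM NaCl, 0.1 mM EDTA, 0.01% Brij, equilibrated 10 min at 30° C with compound from DMSO stock. Started with ATP at 150 μM final; NADH-coupled absorbance at 340 nm followed 15 min at 30° C. Ki from initial rates by non-linear regression.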

Structure (SMILES) | Ki (PKC alpha kinase) | Ki (PKC theta kinase) | Ki (PKC delta kinase)
OC1(C2CN(c3ccc(C(F)(F)F)c(-c4n[nH]c5ncccc45)n3)CCN2)COC1 (stereo not drawn) [Compound 233] | > 1250 nM | > 700 nM | > 1250 nM
N#CC1(c2cccc(-c3n[nH]c4ncccc34)n2)CCNCC1 [Compound 234] | < 500 nM | < 50 nM | < 500 nM
CC(C)C(C)(O)C1CN(c2ccc(C(F)(F)F)c(-c3n[nH]c4ncccc34)n2)CCN1 (stereo not drawn) [Compound 236] | > 1250 nM | < 50 nM | > 1250 nM
CC(C)C(C)C1CN(c2ccc(F)c(-c3n[nH]c4ncccc34)n2)CCN1 (stereo not drawn) [Compound 238] | > 1250 nM | < 50 nM | < 500 nM
OC1(C2CN(c3ccc(F)c(-c4n[nH]c5ncccc45)n3)CCN2)CCC1 (stereo not drawn) [Compound 240] | > 1250 nM | < 50 nM | < 500 nM
CCC(C)(O)C1CN(c2ccc(F)c(-c3n[nH]c4ncccc34)n2)CCN1 (stereo not drawn) [Compound 241] | < 2800 nM | < 50 nM | < 500 nM
CCC(C)(O)C1CN(c2ccc(F)c(-c3n[nH]c4ncccc34)n2)CCN1 (stereo not drawn) [Compound 242] | > 1250 nM | < 50 nM | < 500 nM
CCC(C)(O)C1CN(c2ccc(F)c(-c3n[nH]c4ncccc34)n2)CCN1 (stereo not drawn) [Compound 243] | > 1250 nM | < 500 nM | > 1250 nM
CCC(C)(O)C1CN(c2ccc(F)c(-c3n[nH]c4ncccc34)n2)CCN1 (stereo not drawn) [Compound 244] | > 1250 nM | < 500 nM | > 1250 nM
OC1(C2CN(c3ccc(F)c(-c4n[nH]c5ncccc45)n3)CCN2)CCCC1 (stereo not drawn) [Compound 245] | > 1250 nM | < 50 nM | < 500 nM
CC(F)(F)C(C)(O)C1CN(c2ccc(F)c(-c3n[nH]c4ncccc34)n2)CCN1 (stereo not drawn) [Compound 246] | > 1250 nM | < 50 nM | < 500 nM
CC(O)(C1CC1)C1CN(c2ccc(F)c(-c3n[nH]c4ncccc34)n2)CCN1 (stereo not drawn) [Compound 247] | < 2800 nM | < 50 nM | < 500 nM
CC(C)(F)C(C)(O)C1CN(c2ccc(F)c(-c3n[nH]c4ncccc34)n2)CCN1 (stereo not drawn) [Compound 248] | < 2800 nM | < 1 nM | < 500 nM
CC(C)(F)C(C)(O)C1CN(c2ccc(F)c(-c3n[nH]c4ncccc34)n2)CCN1 (stereo not drawn) [Compound 249] | > 1250 nM | < 50 nM | > 1250 nM
CC(C)(F)C(C)(O)C1CN(c2ccc(F)c(-c3n[nH]c4ncccc34)n2)CCN1 (stereo not drawn) [Compound 250] | > 1250 nM | < 50 nM | < 500 nM
OC1([C@@H]2CN(c3ccc(F)c(-c4n[nH]c5ncccc45)n3)CCN2)CC1 [Compound 251] | > 1250 nM | < 50 nM | < 500 nM
CC(C)C(O)C1CN(c2ccc(F)c(-c3n[nH]c4ncccc34)n2)CCN1 (stereo not drawn) [Compound 252] | < 2800 nM | < 50 nM | < 500 nM
CC(C)(F)C(C)(O)C1CN(c2ccc(F)c(-c3n[nH]c4ncccc34)n2)CCN1 (stereo not drawn) [Compound 254] | > 1250 nM | < 1 nM | < 50 nM
O=C1CN(c2ccc(F)c(-c3n[nH]c4ncccc34)n2)CCN1 [Compound 255] | > 1250 nM | > 700 nM | > 1250 nM
CC1CN(c2ccc(F)c(-c3n[nH]c4ncccc34)n2)CC(C2(O)CCC2)N1 (stereo not drawn) [Compound 256] | > 1250 nM | < 500 nM | > 1250 nM
OCCC1CCCCN1c1ccc(C(F)(F)F)c(-c2n[nH]c3ncccc23)n1 (stereo not drawn) [Compound 257] | > 1250 nM | > 700 nM | > 1250 nM
OCC1CCCN(c2ccc(C(F)(F)F)c(-c3n[nH]c4ncccc34)n2)C1 (stereo not drawn) [Compound 258] | > 1250 nM | > 700 nM | > 1250 nM
NC(=O)C1(N2CCCCC2)CCN(c2ccc(C(F)(F)F)c(-c3n[nH]c4ncccc34)n2)CC1 [Compound 259] | > 1250 nM | > 700 nM | > 1250 nM
Cc1cc([C@@H]2CN(c3ccc(F)c(-c4n[nH]c5ncccc45)n3)CCN2)[nH]n1 [Compound 260] | > 1250 nM | < 500 nM | > 1250 nM
CC1CN(c2ccc(C(F)(F)F)c(-c3n[nH]c4ncccc34)n2)CC(C2(O)CCC2)N1 (stereo not drawn) [Compound 261] | > 1250 nM | > 700 nM | > 1250 nM
CC(N)[C@H]1CCCN(c2ccc(F)c(-c3n[nH]c4ncccc34)n2)C1 (stereo partly drawn) [Compound 262] | > 1250 nM | < 50 nM | < 500 nM
